Measurements published in US5684013A, “Tricyclic compounds useful for inhibition of g-protein function and for treatment of proliferative diseases” (Schering Corporation, priority 1995, dated 1997).
Like-named read-outs stand apart in the source and are kept apart here.

How the values were obtained:
[1] = system: T24-BAG4 human bladder carcinoma cells; experiment: Cell Mat Assay: inhibition of tumor cell growth; assay type: cell-based; details: 336 h, tIC50, 14 d colony formation
Method: (§1) Normal human HEPM fibroblasts were planted in 3.5 cm dishes at a density of 5×10^4 cells/dish in 2 ml growth medium, and incubated for 3-5 d to achieve confluence. Medium was aspirated from each dish and the indicator tumor cells, T24-BAG4 human bladder carcinoma cells expressing an activated H-ras gene, were planted on top of the fibroblast monolayer at a density of 2×10^3 cells/dish in 2 ml growth medium, and allowed to attach overnight. Compound-induced colony inhibition was assayed by addition of serial dilutions of compound directly to the growth medium 24 h after tumor cell planting, and incubating cells for an additional 14 d to allow colony formation. Assays were terminated by rinsing monolayers twice with phosphate-buffered saline (PBS), fixing the monolayers with a 1% glutaraldehyde solution in PBS, then visualizing tumor cells by staining with X-Gal (Price, J., et al., Lineage analysis in the vertebrate nervous system by retrovirus-mediated gene transfer, Proc. Natl. Acad. Sci. 84, 156-160(1987)). In the colony inhibition assay, compounds were evaluated on the basis of two IC50 values: the concentration of drug required to prevent the increase in tumor cell number by 50% (tIC50) and the concentration of drug required to reduce the density of cells comprising the cell mat by 50% (mIC50). Both IC50 values were obtained by determining the density of tumor cells and mat cells by visual inspection and enumeration of cells per colony and the number of colonies under the microscope. The therapeutic index of the compound was quantitatively expressed as the ratio of mIC50 /tIC50, with values greater than one indicative of tumor target specificity.

[2] = target: T1, farnesyl protein transferase (FPT) (Rattus norvegicus, UniProt Q02293+Q04631); experiment: In vitro enzyme assay: inhibition of farnesyl protein transferase (FPT), Ras-CVLS farnesylation; assay type: biochemical
T1 construct: were partially purified from rat brain by ammonium sulfate fractionation; from tissue; host or cells: rat brain
Description: (§2) 1. In vitro enzyme assays: Inhibition of farnesyl protein transferase and geranylgeranyl protein transferase.
Both farnesyl protein transferase (FPT) and geranylgeranyl protein transferase (GGPT) I were partially purified from rat brain by ammonium sulfate fractionation followed by Q-Sepharose (Pharmacia, Inc.) anion exchange chromatography essentially as described by Yokoyama et al (Yokoyama, K., et al., (1991), A protein geranylgeranyltransferase from bovine brain: Implications for protein prenylation specificity, Proc. Natl. Acad. Sci USA 88: 5302-5306, the disclosure of which is incorporated herein by reference thereto). Human farnesyl protein transferase was also expressed in E. coli, using cDNA clones encoding both the a and b subunits. The methods used were similar to those published (Omer, C. et al., (1993), Characterization of recombinant human farnesyl protein transferase: Cloning, expression, farnesyl diphosphate binding, and functional homology with yeast prenyl-protein transferases, Biochemistry 32:5167-5176). Human farnesyl protein transferase was partially-purified from the soluble protein fraction of E. coli as described above. the tricyclic farnesyl protein transferase inhibitors disclosed herein inhibited both human and rat enzyme with similar potencies. Two forms of val^12 -Ha-Ras protein were prepared as substrates for these enzymes, differing in their carboxy terminal sequence. One form terminated in cysteine-valine-leucine-serine (Ras-CVLS) the other in cystein-valine-leucine-leucine (Ras-CVLL). Ras-CVLS is a substrate for the farnesyl protein transferase while Ras-CVLL is a substrate for geranylgeranyl protein transferase I. The cDNAs encoding these proteins were constructed so that the proteins contain an amino-terminal extension of 6 histidine residues. Both proteins were expressed in Escherichia coli and purified using metal chelate affinity chromatography. The radiolabelled isoprenyl pyrophosphate substrates, [^3 H]farnesyl pyrophosphate and [^3 H]geranylgeranyl pyrophosphate, were purchased from DuPont/New England Nuclear.
Several methods for measuring farnesyl protein transferase activity have been described (Reiss et al 1990, Cell 62: 81; Schaber et al 1990, J. Biol. Chem. 265: 14701; Manne et al 1990, PNAS 87: 7541; and Barbacid & Manne 1993, U.S. Pat. No. 5,185,248). The activity was assayed by measuring the transfer of [^3 H]farnesyl from [^3 H]farnesyl pyrophosphate to Ras-CVLS using conditions similar to those described by Reiss et al. 1990 (Cell 62: 81) The reaction mixture contained 40 mM Hepes, pH 7.5; 20 mM magnesium chloride; 5 mM dithiothreitol; 0.25 μM [^3 H]farnesyl pyrophosphate; […] Q-Sepharose-purified farnesyl protein transferase; the indicated concentration of tricyclic compound or dimethylsulfoxide (DMSO) vehicle control (5% DMSO final); and […] Ras-CVLS in a total volume of […]. The reaction was allowed to proceed for 30 minutes at room temperature and then stopped with 0.5 ml of 4% sodium dodecyl sulfate (SDS) followed by 0.5 ml of cold 30% trichloracetic acid (TCA). Samples were allowed to sit on ice for 45 minutes and precipitated Ras protein was then collected on GF/C filter paper mats using a Brandel cell harvester. Filter mats were washed once with 6% TCA, 2% SDS and radioactivity was measured in a Wallac 1204 Betaplate BS liquid scintillation counter. Percent inhibition was calculated relative to the DMSO vehicle control.

[3] = system: Normal human HEPM fibroblasts; experiment: Cell Mat Assay: inhibition of normal cell growth (cell mat); assay type: cell-based; details: Fibroblast, mIC50, normal cell monolayer
Method: as §1

[4] = target: T2, geranylgeranyl protein transferase (GGPT) I (Rattus norvegicus, UniProt P53610+Q04631); experiment: In vitro enzyme assay: inhibition of geranylgeranyl protein transferase (GGPT) I, Ras-CVLL as acceptor; assay type: biochemical
T2 construct: were partially purified from rat brain by ammonium sulfate fractionation; from tissue; host or cells: rat brain
Description: as §2
Both farnesyl protein transferase (FPT) and geranylgeranyl protein transferase (GGPT) I were partially purified from rat brain by ammonium sulfate fractionation followed by Q-Sepharose (Pharmacia, Inc.) anion exchange chromatography essentially as described by Yokoyama et al (Yokoyama, K., et al., (1991), A protein geranylgeranyltransferase from bovine brain: Implications for protein prenylation specificity, Proc. Natl. Acad. Sci USA 88: 5302-5306, the disclosure of which is incorporated herein by reference thereto). Human farnesyl protein transferase was also expressed in E. coli, using cDNA clones encoding both the a and b subunits. The methods used were similar to those published (Omer, C. et al., (1993), Characterization of recombinant human farnesyl protein transferase: Cloning, expression, farnesyl diphosphate binding, and functional homology with yeast prenyl-protein transferases, Biochemistry 32:5167-5176). Human farnesyl protein transferase was partially-purified from the soluble protein fraction of E. coli as described above. the tricyclic farnesyl protein transferase inhibitors disclosed herein inhibited both human and rat enzyme with similar potencies. […]

[5] = system: Ras-CVLS processing in COS monkey kidney cells; experiment: Cell-Based Assay: Ras-CVLS processing in transfected COS monkey kidney cells; details: Primates, read-out: COS IC50 (inhibition of Ras-CVLS processing)
Description: 2. Cell-Based Assay: Transient expression of val^12 -Ha-Ras-CVLS and val^12 -Ha-Ras-CVLL in COS monkey kidney cells: Effect of farnesyl protein transferase inhibitors on Ras processing and on disordered cell growth induced by transforming Ras.
COS monkey kidney cells were transfected by electroporation with the plasmid pSV-SPORT (Gibco/BRL) containing a cDNA insert encoding either Ras-CVLS or Ras-CVLL, leading to transient overexpression of a Ras substrate for either farnesyl protein transferase or geranylgeranyl protein transferase I, respectively (see above). […]
Membranes were blocked by incubation overnight at 4° C. in PBS containing 2.5% dried milk and 0.5% Tween-20 and then incubated with a Ras-specific monoclonal antibody, Y13-259 (Furth, M. E., et al., (1982), Monoclonal antibodies to the p21 products of the transforming gene of Harvey murine sarcome virus and of the cellular ras gene family, J. Virol. 43: 294-304), in PBS containing 1% fetal calf serum for one hour at room temperature. […] The presence of processed and unprocessed Ras-CVLS or Ras-CVLL was detected using a colorimetric peroxidase reagent (4-chloro-1-naphthol) as described by the manufacturer (Bio-Rad).

[6] = Table 3, comparison of FPT and GGPT inhibition, read-out: ENZYME INHIBITION FPT IC50

SMILES	IC50 [1]	IC50 ([2]; Table 2, read-out: FPT IC50)	IC50 [2, 6]	IC50 [3]	IC50 ([4]; Table 3)	IC50 [5]	IC50 ([4]; Table 3, unit printed in the cell)
O=S(=O)(c1cccs1)N1CCC/C(=C2\c3ccc(Cl)cc3CCc3cccnc32)C1 [Compound E-1G]	12.5 µM	< 0.44 µM	0.47 µM	> 25 µM	< 13 µM		
O=S(=O)(c1ccccc1)N1CC/C(=C2\c3ccc(Cl)cc3CCc3cccnc32)C1 [Compound E-2]		0.59 µM				> 5 µM	
O=S(=O)(c1ccccc1)N1CCC/C(=C2\c3ccc(Cl)cc3CCc3cccnc32)C1 [Compound E-2E]	< 3.1 µM	0.71 µM	0.71 µM	> 50 µM		2.5 µM	7.4 µM
